± gives the standard deviation of the averaged measurements.
Tests used:
[1] = system: THP-1 (vitamin D3 differentiated); test: cAMP EC50 (HTRF); higher = lower potency; conditions: 20 min
Protocol: (§1)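 Vitamin-D3-differentiated THP-1 cells were treated 4 h with compounds (1:10 serial dilutions, top 100 uM). Two 8-gene QuantiGene Plex signatures were read out as TBP-normalised rscores; the cos_weight_AC signature score (% of 10 uM isoproterenol active control) was fitted by 4PL/nonparametric fit to give EC50, with constant fits assigned one log unit outside the tested range. cAMP EC50s come from a 20 min HTRF assay with IBMX at 37 °C, fitted with the same algorithm.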

[2] = system: THP-1 (vitamin D3 differentiated); test: EC50 of beta-agonist gene-signature score cos_weight_AC (signature01); conditions: 4 h
Protocol: as §1

[3] = system: THP-1 (vitamin D3 differentiated); test: EC50 of beta-agonist gene-signature score cos_weight_AC (signature02); conditions: 4 h
Protocol: as §1

Compound	cAMP EC50 [1]	EC50 [2]	EC50 [3]
O=c1ccc2c([C@@H](O)CNCCCCCCOCC(F)(F)c3ccccc3)ccc(O)c2[nH]1 [Abediterol]	< 0.01 nM	< 0.01 nM	< 0.01 nM
CC(C)(Cc1ccccc1)NCC(O)c1ccc(O)c(NS(C)(=O)=O)c1 (centres undefined) [Zinterol]	< 0.01 nM	3.48 nM	0.567 nM
Cn1cc(C(F)(F)F)nc1-c1ccc(OCC(O)CNCCOc2ccc(O)c(C(N)=O)c2)cc1 (centres undefined)	> 100000 nM	> 100000 nM	> 100000 nM
COc1ccc(CC(C)NCC(O)c2ccc(O)c(NC=O)c2)cc1 (centres undefined) [Formoterol]	0.0101 nM	0.254 nM	0.108 nM
OCc1cc([C@@H](O)CNCCCCCCOCCOCc2c(Cl)cccc2Cl)ccc1O [Vilanterol]	< 0.01 nM	5.65 nM	5.86 nM
NC[C@H](O)c1ccc(O)c(O)c1 [Norepinephrine]	0.42 ± 0.14 nM	1.46 nM	6.13 nM
CC(Cc1ccc(OCC(=O)O)cc1)NCC(O)c1cccc(Cl)c1 (centres undefined)	50.1 ± 31 nM	421 nM	167 nM
CCC(NC(C)C)C(O)c1ccc(O)c(O)c1 (centres undefined) [Isoetharine]	–	32.1 nM	48.4 nM
CC(CCc1ccc(O)cc1)NCCc1ccc(O)c(O)c1 (centres undefined) [Dobutamine]	1.38 ± 0.91 nM	8.15 nM	–
CC(C)(C)NCC(O)c1cc(O)cc(O)c1 (centres undefined) [Terbutaline]	349 ± 260 nM	216 nM	230 nM
CNC[C@H](O)c1ccc(O)c(O)c1 [Adrenaline]	–	64.7 nM	68.1 nM
CC(C)NCC(O)c1cc(O)cc(O)c1 (centres undefined) [Metaproterenol]	5.17 ± 2.3 nM	21.6 nM	–
COc1cc(NC(=O)CCN2CCC(OC(=O)Nc3ccccc3-c3ccccc3)CC2)c(Cl)cc1CNC[C@H](O)c1ccc(O)c2[nH]c(=O)ccc12 [Batefenterol]	–	0.265 nM	–
CC(NCCc1ccc(O)cc1)C(O)c1ccc(O)cc1 (centres undefined) [Ritodrine]	624 ± 160 nM	295 nM	294 nM
CNCCc1cnc[nH]1 [N-alpha-methylhistamine]	180 ± 26 nM	248 nM	234 nM
CC(C)(C)NCC(O)c1ccccc1Cl (centres undefined) [Tulobuterol]	32.1 ± 20 nM	–	215 nM
COc1cc(C[C@@H]2NCCc3cc(O)c(O)cc32)cc(OC)c1OC [Tretoquinol]	–	0.237 nM	–
CC(Cc1ccc(O)cc1)NCC(O)c1cc(O)cc(O)c1 (centres undefined) [Fenoterol]	1.75 ± 1.5 nM	8.21 nM	3.65 nM
Oc1ccc(CCNCCCCCCNCCc2ccccc2)cc1O [Dopexamine]	13900 ± 12000 nM	–	–
COc1ccc(CC(C)(C)NC[C@H](O)c2cc(O)cc3c2OCC(=O)N3)cc1 [Olodaterol]	–	2.88 nM	0.127 nM
CC(C)(C)NCC(O)c1ccc(O)c(CO)c1 (centres undefined) [Salbutamol]	10.6 ± 9.1 nM	98.5 nM	64.6 nM
C=C[C@@]1(C)CC(=O)[C@]2(O)[C@@]3(C)[C@@H](O)CCC(C)(C)[C@@H]3[C@H](O)[C@H](OC(C)=O)[C@@]2(C)O1 [Forskolin]	–	2770 nM	2310 nM
CCC(NC(C)C)C(O)c1ccc(O)c2[nH]c(=O)ccc12 (centres undefined) [Procaterol]	–	–	0.703 nM

— the supplement of paper PMC7295968
